Reference: patent publication US9650339B2, “Inhibitors of histone demethylases” (Gilead Sciences, Inc., priority 2013, dated 2017)

Tests used:
KDM6B (JMJD3) = biological target: T1, KDM6B (JMJD3) (Homo sapiens, UniProt O15054); experiment: Histone lysine demethylase AlphaLISA assay, KDM6B; type: biochemical; conditions: read-out: KDM6B HDME Inhibition IC50
T1 construct: 1043-end; purchased BPS; host or cells: Bac (baculovirus system)
Summary of the method: (§1)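 Biotinylated methylated H3 peptides (K9, K4, K27 or K36 marks) served as substrate, with 25 μM L-Asc and 10 μM α-KG. Enzymes were preincubated 10 min, then exposed to compounds (3% DMSO solutions) 10 min; product detected by AlphaLISA acceptor and streptavidin donor beads at room temperature in dark.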

KDM4C = biological target: T2, KDM4C (Homo sapiens, UniProt Q9H3R0); experiment: Histone lysine demethylase immunofluorescence assay, U2OS cells transfected with KDM4C; type: cell-based; conditions: U2OS cells transfected with pCMVHA KDM4C; mark detected H3K9me3; 20 hours
T2 construct: Full length; host or cells: U2OS
T2 sequence (Q9H3R0 1-1056): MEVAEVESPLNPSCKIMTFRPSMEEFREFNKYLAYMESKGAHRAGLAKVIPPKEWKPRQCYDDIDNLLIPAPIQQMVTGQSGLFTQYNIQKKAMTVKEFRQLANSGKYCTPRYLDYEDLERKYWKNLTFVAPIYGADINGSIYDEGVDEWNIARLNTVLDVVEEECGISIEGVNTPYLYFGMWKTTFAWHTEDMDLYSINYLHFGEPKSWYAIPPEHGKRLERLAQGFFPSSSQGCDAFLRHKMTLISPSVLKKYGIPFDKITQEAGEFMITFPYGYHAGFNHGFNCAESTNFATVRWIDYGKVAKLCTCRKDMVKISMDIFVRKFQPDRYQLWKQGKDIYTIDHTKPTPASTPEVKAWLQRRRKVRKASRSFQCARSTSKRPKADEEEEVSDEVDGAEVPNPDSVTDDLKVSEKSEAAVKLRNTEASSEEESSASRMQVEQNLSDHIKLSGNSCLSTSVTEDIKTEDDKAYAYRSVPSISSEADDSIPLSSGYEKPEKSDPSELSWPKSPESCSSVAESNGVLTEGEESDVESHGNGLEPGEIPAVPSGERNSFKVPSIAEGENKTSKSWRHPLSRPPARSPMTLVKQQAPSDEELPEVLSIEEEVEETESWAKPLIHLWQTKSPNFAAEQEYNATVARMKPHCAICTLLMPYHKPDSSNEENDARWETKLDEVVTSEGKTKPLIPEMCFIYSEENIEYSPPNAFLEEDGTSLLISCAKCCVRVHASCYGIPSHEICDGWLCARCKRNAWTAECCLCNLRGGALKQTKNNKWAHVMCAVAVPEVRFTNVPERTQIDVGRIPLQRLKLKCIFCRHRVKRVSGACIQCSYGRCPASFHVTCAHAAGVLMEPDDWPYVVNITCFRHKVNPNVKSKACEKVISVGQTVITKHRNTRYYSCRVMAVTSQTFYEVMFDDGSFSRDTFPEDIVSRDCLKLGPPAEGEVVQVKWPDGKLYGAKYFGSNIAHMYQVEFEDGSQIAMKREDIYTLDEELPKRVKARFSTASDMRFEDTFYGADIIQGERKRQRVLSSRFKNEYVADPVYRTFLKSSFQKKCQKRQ
Summary of the method: (§2)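 U2OS cells were transiently transfected with HA-tagged demethylase and reseeded after 6 h into compound-containing DMEM/10% FBS for 20 h. Cells were fixed in formaldehyde and immunostained for HA and the relevant histone methyl mark, then imaged. IC50 is based on mean mark staining in HA+ transfected cells.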

KDM6A (UTX) = KDM6A (UTX) (Homo sapiens, UniProt O15550); experiment: Histone lysine demethylase AlphaLISA assay, KDM6A; type: biochemical; conditions: read-out: KDM6A HDME Inhibition IC50
KDM6A (UTX), sequence (O15550 919-1401): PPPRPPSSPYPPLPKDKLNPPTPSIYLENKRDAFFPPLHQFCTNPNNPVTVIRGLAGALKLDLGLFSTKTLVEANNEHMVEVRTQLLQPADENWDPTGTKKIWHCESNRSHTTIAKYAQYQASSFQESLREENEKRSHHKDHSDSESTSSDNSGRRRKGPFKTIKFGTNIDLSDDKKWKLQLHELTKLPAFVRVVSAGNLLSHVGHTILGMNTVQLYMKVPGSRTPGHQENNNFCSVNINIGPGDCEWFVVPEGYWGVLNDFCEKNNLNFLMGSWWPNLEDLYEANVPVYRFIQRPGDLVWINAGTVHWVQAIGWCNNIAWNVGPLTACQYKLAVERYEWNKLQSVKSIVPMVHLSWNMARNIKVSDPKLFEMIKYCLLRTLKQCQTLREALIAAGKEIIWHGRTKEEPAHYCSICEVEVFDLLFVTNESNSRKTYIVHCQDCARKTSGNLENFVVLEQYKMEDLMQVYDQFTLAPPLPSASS
Summary of the method: as §1

KDM5B = biological target: T3, KDM5B (Homo sapiens, UniProt Q9UGL1); experiment: Histone lysine demethylase immunofluorescence assay, U2OS cells transfected with KDM5B; type: cell-based; conditions: U2OS cells transfected with pCMVHA KDM5B; mark detected H3K4me2; 20 hours
T3 construct: (a.a. 1-752); host or cells: U2OS
T3 sequence (Q9UGL1 1-752): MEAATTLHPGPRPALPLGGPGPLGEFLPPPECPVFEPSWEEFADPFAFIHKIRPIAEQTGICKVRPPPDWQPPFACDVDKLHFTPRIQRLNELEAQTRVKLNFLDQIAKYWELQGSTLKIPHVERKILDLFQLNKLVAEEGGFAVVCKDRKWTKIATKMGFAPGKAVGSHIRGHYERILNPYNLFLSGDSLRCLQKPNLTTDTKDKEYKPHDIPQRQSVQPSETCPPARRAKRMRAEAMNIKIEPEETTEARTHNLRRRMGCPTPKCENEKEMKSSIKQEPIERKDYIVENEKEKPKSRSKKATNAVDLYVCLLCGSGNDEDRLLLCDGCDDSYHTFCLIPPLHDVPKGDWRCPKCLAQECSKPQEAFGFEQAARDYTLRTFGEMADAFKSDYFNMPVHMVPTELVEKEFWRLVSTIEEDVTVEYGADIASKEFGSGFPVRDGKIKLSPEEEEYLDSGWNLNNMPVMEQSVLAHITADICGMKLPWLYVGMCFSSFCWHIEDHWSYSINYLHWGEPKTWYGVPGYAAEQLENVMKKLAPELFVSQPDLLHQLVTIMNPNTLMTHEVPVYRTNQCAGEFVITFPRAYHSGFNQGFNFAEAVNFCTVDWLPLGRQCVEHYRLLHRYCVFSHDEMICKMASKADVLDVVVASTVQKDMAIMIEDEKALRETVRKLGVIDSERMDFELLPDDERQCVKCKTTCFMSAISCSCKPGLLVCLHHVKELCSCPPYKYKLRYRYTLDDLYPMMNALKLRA
Summary of the method: as §2

T1 sequence (O15054 1043-1682 isoform O15054-1 limits assumed): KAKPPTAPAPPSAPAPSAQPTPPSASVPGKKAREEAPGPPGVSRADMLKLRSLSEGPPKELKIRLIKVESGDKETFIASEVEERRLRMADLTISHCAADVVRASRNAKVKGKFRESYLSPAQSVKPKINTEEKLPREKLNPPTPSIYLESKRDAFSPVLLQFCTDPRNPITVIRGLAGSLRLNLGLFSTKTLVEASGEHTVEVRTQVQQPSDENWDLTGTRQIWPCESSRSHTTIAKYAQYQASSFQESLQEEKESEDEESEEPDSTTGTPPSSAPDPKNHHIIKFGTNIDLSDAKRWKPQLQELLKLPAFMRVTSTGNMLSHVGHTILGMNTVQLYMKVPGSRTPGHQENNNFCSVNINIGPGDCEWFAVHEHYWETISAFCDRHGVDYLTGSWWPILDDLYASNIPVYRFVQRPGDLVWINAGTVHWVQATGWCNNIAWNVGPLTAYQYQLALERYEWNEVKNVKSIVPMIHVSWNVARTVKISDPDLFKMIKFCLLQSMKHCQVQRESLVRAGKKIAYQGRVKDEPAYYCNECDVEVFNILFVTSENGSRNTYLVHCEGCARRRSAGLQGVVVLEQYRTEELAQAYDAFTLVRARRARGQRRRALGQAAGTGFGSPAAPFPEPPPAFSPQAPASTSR

Row | SMILES | IC50 (KDM6B (JMJD3)) | IC50 (KDM4C) | IC50 (KDM6A (UTX)) | IC50 (KDM5B)
1 | CCN(CCN(C)C)C(=O)CNCc1cc(/C=N/CCO)ccn1 [Compound 66] | > 2500 nM | 250 to 2500 nM | > 2500 nM | < 250 nM
2 | CN(C)CC1CCC(CNCc2cc(C=O)ccn2)CC1 (stereo not drawn) [Compound 97, 2-{[({4-[(dimethylamino)-methyl]cyclohexyl}-methyl)amino]-methyl}pyridine-4-carbaldehyde] | > 2500 nM | 250 to 2500 nM | > 2500 nM | < 250 nM
3 | CN(C)C/C=C/CNCc1cc(C=O)ccn1 [Compound 98, 2-({[(2E)-4-(dimethylamino)but-2-en-1-yl]amino}-methyl)pyridine-4-carbaldehyde] | > 2500 nM | 250 to 2500 nM | > 2500 nM | < 250 nM
4 | CN(C)C/C=C\CNCc1cc(C=O)ccn1 [Compound 99, 2-({[(2Z)-4-(dimethylamino)-but-2-en-1-yl]amino}methyl)-pyridine-4-carbaldehyde] | > 2500 nM | > 2500 nM | > 2500 nM | > 2500 nM
5 | CN1CCC(CNCc2cc(C=O)ccn2)CC1 [Compound 100, 2-({[(1-methyl-piperidin-4-yl)methyl]amino}-methyl)pyridine-4-carbaldehyde] | > 2500 nM | 250 to 2500 nM | > 2500 nM | < 250 nM
6 | CCN(CCN(C)C)C(=O)CNCc1cc(C=O)ccn1 [Compound 101] | > 2500 nM | 250 to 2500 nM | > 2500 nM | < 250 nM
7 | O=Cc1ccnc(CNCC(=O)N2CCC[C@@H]2CN2CCCC2)c1 [Compound 102, 2-[({2-oxo-2-[(2R)-2-(pyrrolidin-1-ylmethyl)pyrrolidin-1-yl]ethyl}amino)-methyl]pyridine-4-carbaldehyde] | > 2500 nM | 250 to 2500 nM | > 2500 nM | 250 to 2500 nM
8 | CN1CCN(C(=O)CNCc2cc(C=O)ccn2)CC1 [Compound 103, 2-({[2-(4-methylpiperazin-1-yl)-2-oxoethyl]-amino}methyl)-pyridine-4-carbaldehyde] | > 2500 nM | > 2500 nM | > 2500 nM | 250 to 2500 nM

Continued, values first:

Row | IC50 (KDM6B (JMJD3)) | IC50 (KDM4C) | IC50 (KDM6A (UTX)) | IC50 (KDM5B) | SMILES
9 | > 2500 nM | 250 to 2500 nM | > 2500 nM | < 250 nM | O=C(CNCc1cc(/C=N/C2CC2)ccn1)N1CCC[C@@H]1CN1CCCC1 [Compound 49, 2-[({4-[N-cyclopropyl-carboximidoyl]pyridin-2-yl}methyl)amino]-1-[(2R)-2-(pyrrolidin-1-ylmethyl)pyrrolidin-1-yl]ethan-1-one]
10 | > 2500 nM | > 2500 nM | > 2500 nM | 250 to 2500 nM | CCN(CCC#N)C(=O)CNCc1cc(/C=N/C2CC2)ccn1 [Compound 50, N-(2-cyanoethyl)-2-[({4-[N-cyclopropyl-carboximidoyl]-pyridin-2-yl}methyl)amino]-N-ethylacetamide]
11 | > 2500 nM | > 2500 nM | > 2500 nM | 250 to 2500 nM | CCN1CCCC1CNC(=O)CNCc1cc(/C=N/C2CC2)ccn1 (stereo not drawn) [Compound 51, 2-[({4-[N-cyclopropyl-carboximidoyl]-pyridin-2-yl}methyl)-amino]-N-[(1-ethylpyrrolidin-2-yl)methyl]acetamide]
12 | > 2500 nM | > 2500 nM | > 2500 nM | 250 to 2500 nM | CN(CCCn1cccn1)C(=O)CNCc1cc(/C=N/C2CC2)ccn1 [Compound 52, 2-[({4-[N-cyclopropyl-carboximidoyl]-pyridin-2-yl}methyl)amino]-N-methyl-N-[3-(1H-pyrazol-1-yl)propyl]acetamide]
13 | 250 to 2500 nM | > 2500 nM | > 2500 nM | 250 to 2500 nM | O=C(CNCc1cc(/C=N/C2CC2)ccn1)NC1CCN(Cc2ccccc2)C1 (stereo not drawn) [Compound 53, N-(1-benzylpyrrolidin-3-yl)-2-[({4-[N-cyclopropyl-carboximidoyl]pyridin-2-yl}methyl)amino]-acetamide]
14 | > 2500 nM | > 2500 nM | > 2500 nM | 250 to 2500 nM | CN1CCN(C(=O)CNCc2cc(/C=N/C3CC3)ccn2)CC1 [Compound 54, 2-[({4-[N-cyclopropyl-carboximidoyl]-pyridin-2-yl}methyl)amino]-1-(4-methylpiperazin-1-yl)ethan-1-one]
15 | > 2500 nM | > 2500 nM | > 2500 nM | > 2500 nM | O=C(CNCc1cc(/C=N/C2CC2)ccn1)N1CCC(Cc2ccccc2)CC1 [Compound 55, 1-(4-benzylpiperidin-1-yl)-2-[({4-[N-cyclopropyl-carboximidoyl]-pyridin-2-yl}methyl)amino]-ethan-1-one]
16 | > 2500 nM | > 2500 nM | > 2500 nM | > 2500 nM | C#CCN(C)C(=O)CNCc1cc(/C=N/C2CC2)ccn1 [Compound 56, 2-[({4-[N-cyclopropyl-carboximidoyl]-pyridin-2-yl}methyl)amino]-N-methyl-N-(prop-2-yn-1-yl)acetamide]
17 | > 2500 nM | 250 to 2500 nM | > 2500 nM | < 250 nM | CCN(CC)CCCCNCc1cc(/C=N/CCO)ccn1 [Compound 61, 2-[{[2-({[4-(diethylamino)-butyl]amino}-methyl)pyridin-4-yl]methylidene}-amino]ethan-1-ol]
18 | > 2500 nM | 250 to 2500 nM | > 2500 nM | < 250 nM | CCN(CC)CCCCNCc1cc(/C=N/CC(F)(F)C(F)(F)F)ccn1 [Compound 62, {[2-({[4-(diethylamino)-butyl]amino}methyl)pyridin-4-yl]methylidene} (2,2,3,3,3-pentafluoropropyl)-amine]
19 | > 2500 nM | 250 to 2500 nM | > 2500 nM | < 250 nM | CCN(CCN(C)C)C(=O)CNCc1cc(/C=N/CCC2CCCCC2)ccn1 [Compound 63, 2-[({4-[[(2-cydohexylethyl)-imino]methyl]pyridin-2-yl}methyl)amino]-N-[2-(dimethylamino)-ethyl]-N-ethylacetamide]
20 | > 2500 nM | > 2500 nM | > 2500 nM | > 2500 nM | CON=Cc1ccnc(CNCCCN(C)C)c1 [Compound 64, [3-(dimethylamino)-propyl]({4-[(methoxyimino)-methyl]pyridin-2-yl}methyl)amine]
21 | > 2500 nM | > 2500 nM | > 2500 nM | < 250 nM | CCN(CC)CCCCNCc1cc(C2NCCN2C)ccn1 (stereo not drawn) [Compound 65, [4-(diethylamino)-butyl]({[4-(1-methylimidazolidin-2-yl)pyridin-2-yl]methyl})amine]
